Legend:
ERK1/2 = assay: Western immunoblot for phosphorylated ERK1/2 in human chondrocytes; assay type: cell-based
Description: To detect activation of MAP kinases (ERK1/2, p38 MAPK, and JNK1/2), first-passaged chondrocytes plated onto 10-cm culture dishes were incubated with CB12-II (SP), USP, TNF-α, native human type II collagen, human fibronectin, and antibodies to α2β1 and α5β1 for 5-60 min. In some experiments, chondrocytes were precultured with U0126 (inhibitor of phosphorylation of MEK1/2, up-stream kinase molecule of ERK1/2) at 1 μM for 1 h, SB203580 (inhibitor of phosphorylation of p38 MAPK) at 1 μM for 1 h, Herbimycin A (tyrosine kinase inhibitor) at 1 μg/ml for overnight, Wortmannin (PI3 kinase inhibitor) at 100 nM for 1 h, and Cytochalasin D (focal adhesion inhibitor) at 3 μM for 30 or 60 min before adding peptides.
After a variable but designated incubation time, chondrocytes were washed twice with ice cold PBS and lysed in RIPA buffer (10 mM Tris/HCl, pH 7.4, 0.1% SDS, 1% NP-40, 0.1% sodium deoxycholate, 150 mM NaCl, 1 mM EDTA) containing freshly added proteinase and phosphatase inhibitors (1 mM PMSF, 10 μg/ml leupeptin, 1 μg/ml aprotinin, 1 mM Na3VO4, 1 mM NaF). Cell lysate was centrifuged and supernatant was collected. Protein concentration was determined using Bradford's method. Equal amounts of protein were separated on 10% SDS-polyacrylamide gels under reducing conditions and were electrotransferred to a nitrocellulose membrane (Bio-Rad). To block nonspecific binding, the membranes were incubated in PBS containing 5% non-fat milk overnight at 4° C. The membranes were then probed with rabbit antibodies against phosphorylated ERK1/2, p38, and JNK1/2 (New England BioLabs). Antibodies were diluted 1:1000 in PBS containing 0.5% non-fat milk and reacted with the membrane for 1 h at room temperature. Blots were washed with PBS containing 0.1% Tween-20 three times, and incubated for 1 h at room temperature with horseradish peroxidase (HRP)-conjugated goat anti-rabbit IgG (New England BioLabs) diluted 1:2000 with PBS-0.1% Tween 20 for ECL system (Amersham). Then, the membranes were washed with PBS-Tween, and the membranes were detected with the addition of a 1:1 dilution of the ECL detection reagents (Amersham) 1 and 2 for 1 min. The solution was removed, and the membranes were wrapped in plastic wrap and exposed to film for various amounts of time.
First-passaged confluent human chondrocytes were treated with CB12-II (SP) (10 μM), USP (10 μM), anti-α2β1and α5β1 antibodies, anti-integrin α2β1 blocking antibody, and IL-1β or TNF-α. Cell lysates were immunoblotted using antibody that detects phosphorylated p-ERK1I/2 or p-MEK. In some experiments, U0126 at 10 μM, a specific inhibitor of an upstream molecule, MEK1/2, that activates ERK1/2, and SB203580 at 10 μM, that inhibits p38 MAPK activity, were added to the culture 1 h before peptides, antibodies, and cytokines. Herbimycin A, cytochalasin D, and wortmannin were also used as inhibitors.

[1] = system: adult human articular cartilage; assay: RT-PCR of hypertrophy and degradation genes in human articular cartilage explant culture; assay type: cell-based
Description: Total RNA was isolated from chondrocytes or cartilage explants by the guanidine isothiocyanate procedure according to Chomczynski and Sacchi (Chomczynski, P. et al., Anal. Biochem. 162:156-9 (1987)) with some modifications. Briefly, chondrocytes (1-2×10^6 cells) or cartilage tissue (200-300 mg) were solubilized in solution D (4 M guanidine isothiocyanate, 20 mM sodium acetate/pH 5.2, 0.1 M 2-mercaptoethanol and 0.5% N-lauroylsarcosine). One volume of isopropanol was added to the mixture and all proteins and nucleic acids were precipitated at −20° C. overnight. […] The total RNA pellet was resuspended in diethyl pyrocarbonate-treated (DEPC) water and the amount of total RNA was measured by reading optical density at 260 nm. […]
One microliter of reverse transcribed total RNA was incubated with 2.5 U of AmpliTaq™ DNA polymerase (Perkin Elmer, Branchburg, N.J.) in 50 mM KCl, 1.5 mM MgCl2, 10 mM Tris-HCl, pH 8.3, 200 μM dNTP mix and 0.5 μmol each of oligonucleotide primers in 50 μl reaction mixture. […] The digital images of the gel were analyzed using NIH 1.60 imaging software to evaluate the pixel intensity of the band of the PCR products. […] The band intensities were determined to be below saturation. […]
MMP-13 expression was maximal by 12 days. Gene expression was determined by RT-PCR analyses of mRNA in the manner used to detect expression of MMPs and cytokines described elsewhere. […]

## ERGPPGPQGARGFPGTPGLPGVK [CB12-II]
ERK1/2; 10 μM
  phosphorylation of ERK1/2 compared with USP at the same concentration: more than USP
  time of maximum ERK1/2 phosphorylation: 15 to 30 min
  time to phosphorylation of ERK1/2 after adding peptide: ≤ 5 min
ERK1/2; 1, 10 and 50 μM, 15 min after addition
  phosphorylation of ERK 1/2, dose dependence: dose-dependently
[1]
  time at which MMP-13 expression was maximal: ≤ 12 days
[1]; induction within a 24-48 hr period
  expression of genes characteristic of chondrocyte hypertrophy (COLX, MMP-9, TGF-B1, IHH, MMP-13, CBFA1, SOX 9, bFGF, pTHrP, caspase-3, MT1-MMP, IL-1B, MMP-1): rapid induction
